Target: T1, human M2 receptor (Homo sapiens, UniProt P08172)
T1 sequence (P08172 1-466): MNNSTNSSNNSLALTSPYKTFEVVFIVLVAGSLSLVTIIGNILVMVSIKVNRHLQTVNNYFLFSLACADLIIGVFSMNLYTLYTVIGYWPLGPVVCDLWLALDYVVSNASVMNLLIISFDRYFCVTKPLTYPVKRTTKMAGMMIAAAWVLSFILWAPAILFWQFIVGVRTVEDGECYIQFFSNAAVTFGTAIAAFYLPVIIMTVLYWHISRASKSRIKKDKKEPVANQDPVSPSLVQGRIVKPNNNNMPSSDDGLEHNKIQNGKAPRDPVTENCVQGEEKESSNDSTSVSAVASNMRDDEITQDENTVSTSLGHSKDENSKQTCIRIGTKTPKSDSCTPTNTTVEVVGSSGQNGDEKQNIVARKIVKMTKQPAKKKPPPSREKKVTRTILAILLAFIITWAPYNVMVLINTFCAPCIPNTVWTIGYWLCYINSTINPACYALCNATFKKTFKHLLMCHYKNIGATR
Conditions: Receptor activity EC50, M2-GIRK1/4 activation test, acetylcholine at EC20; allosteric potency; in some cases mean values from two or more determinations

Structure (SMILES)	EC50
O=C(NC12CC3CC(CC(C3)C1)C2)c1cn(-c2ccc(F)cc2F)c2nc(N3CCCC(F)(F)C3)ccc2c1=O [Example 1, 1-(2,4-Difluorophenyl)-7-(3,3-difluoropiperidin-1-yl)-4-oxo-N-(tricyclo[3.3.1.1^3,7]dec-1-yl)-1,4-dihydro-1,8-naphthyridine-3-carboxamide]	14 nM
O=C(NC12CC3CC(CC(C3)C1)C2)c1cn(-c2ccc(F)cc2F)c2nc(N3CCC(F)CC3)ccc2c1=O [Example 5, 1-(2,4-Difluorophenyl)-7-(4-fluoropiperidin-1-yl)-4-oxo-N-(tricyclo[3.3.1.1^3,7]dec-1-yl)-1,4-dihydro-1,8-naphthyridine-3-carboxamide]	31 nM
O=C(NC12CC3CC(CC(C3)C1)C2)c1cn(-c2ccc(F)cc2F)c2nc(N3CCCCC3)ccc2c1=O [Example 8, 1-(2,4-Difluorophenyl)-4-oxo-7-(piperidin-1-yl)-N-(tricyclo[3.3.1.1^3,7]dec-1-yl)-1,4-dihydro-1,8-naphthyridine-3-carboxamide]	38 nM
NC(=O)N1CCN(c2ccc3c(=O)c(C(=O)NC45CC6CC(CC(C6)C4)C5)cn(-c4ccc(F)cc4F)c3n2)CC1 [Example 12, 7-(4-Carbamoylpiperazin-1-yl)-1-(2,4-difluorophenyl)-4-oxo-N-(tricyclo[3.3.1.1^3,7]dec-1-yl)-1,4-dihydro-1,8-naphthyridine-3-carboxamide]	64 nM
O=C(NC12CC3CC(CC(C3)C1)C2)c1cn(-c2ccc(F)cc2F)c2nc(N3CCC(F)(CO)CC3)ccc2c1=O [Example 16, 1-(2,4-Difluorophenyl)-7-[4-fluoro-4-(hydroxymethyl)piperidin-1-yl]-4-oxo-N-(tricyclo[3.3.1.1^3,7]dec-1-yl)-1,4-dihydro-1,8-naphthyridine-3-carboxamide]	90 nM
O=C(NC12CC3CC(CC(C3)C1)C2)c1cn(-c2ccc(F)cc2F)c2nc(N3CCCC(CCO)C3)ccc2c1=O (stereo not drawn) [Example 17, 1-(2,4-Difluorophenyl)-7-[3-(2-hydroxyethyl)piperidin-1-yl]-4-oxo-N-(tricyclo[3.3.1.1^3,7]dec-1-yl)-1,4-dihydro-1,8-naphthyridine-3-carboxamide]	159 nM
O=C1CN(c2ccc3c(=O)c(C(=O)NC45CC6CC(CC(C6)C4)C5)cn(-c4ccc(F)cc4F)c3n2)CCN1 [Example 18, 1-(2,4-Difluorophenyl)-4-oxo-7-(3-oxopiperazin-1-yl)-N-(tricyclo[3.3.1.1^3,7]dec-1-yl)-1,4-dihydro-1,8-naphthyridine-3-carboxamide]	117 nM
CC(C)(NC(=O)c1cn(-c2ccc(F)cc2F)c2nc(N3CC[C@@H](O)C3)ccc2c1=O)c1c(F)cccc1F [Example 21, 1-(2,4-Difluorophenyl)-N-[2-(2,6-difluorophenyl)propan-2-yl]-7-[(3R)-3-hydroxypyrrolidin-1-yl]-4-oxo-1,4-dihydro-1,8-naphthyridine-3-carboxamide]	145 nM
CO[C@@H]1CCN(c2ccc3c(=O)c(C(=O)NC(C)(C)c4c(F)cccc4F)cn(-c4ccc(F)cc4F)c3n2)C1 [Example 22, 1-(2,4-Difluorophenyl)-N-[2-(2,6-difluorophenyl)propan-2-yl]-7-[(3R)-3-methoxypyrrolidin-1-yl]-4-oxo-1,4-dihydro-1,8-naphthyridine-3-carboxamide]	131 nM
CC[C@@H](NC(=O)c1cn(-c2ccc(F)cc2F)c2nc(N3CC(F)C3)ccc2c1=O)C(F)(F)F [Example 32, 1-(2,4-Difluorophenyl)-7-(3-fluoroazetidin-1-yl)-4-oxo-N-[(2R)-1,1,1-trifluorobutan-2-yl]-1,4-dihydro-1,8-naphthyridine-3-carboxamide]	173 nM
CN(C)c1ccc2c(=O)c(C(=O)NC34CC5CC(CC(F)(C5)C3)C4)cn(-c3ccc(F)cc3F)c2n1 [Example 37, 1-(2,4-Difluorophenyl)-7-(dimethylamino)-N-(3-fluorotricyclo[3.3.1.1^3,7]dec-1-yl)-4-oxo-1,4-dihydro-1,8-naphthyridine-3-carboxamide]	23 nM
CN(C)c1ccc2c(=O)c(C(=O)NC34CC5CC(C3)C(F)(F)C(C5)C4)cn(-c3ccc(F)cc3Cl)c2n1 [Example 40, 1-(2-Chloro-4-fluorophenyl)-N-(4,4-difluorotricyclo[3.3.1.1^3,7]dec-1-yl)-7-(dimethylamino)-4-oxo-1,4-dihydro-1,8-naphthyridine-3-carboxamide]	106 nM
CN(C)c1ccc2c(=O)c(C(=O)NC34CC5CC(CC(C)(C5)C3)C4)cn(-c3ccc(F)cc3F)c2n1 [Example 41, 1-(2,4-Difluorophenyl)-7-(dimethylamino)-N-(3-methyltricyclo[3.3.1.1^3,7]dec-1-yl)-4-oxo-1,4-dihydro-1,8-naphthyridine-3-carboxamide]	39 nM
CN(C)c1ccc2c(=O)c(C(=O)NC34CCC(C)(CC3)CC4)cn(-c3ccc(F)cc3F)c2n1 [Example 42, 1-(2,4-Difluorophenyl)-7-(dimethylamino)-N-(4-methylbicyclo[2.2.2]oct-1-yl)-4-oxo-1,4-dihydro-1,8-naphthyridine-3-carboxamide]	17 nM
CN(C)c1ccc2c(=O)c(C(=O)NC(C)(C)C)cn(-c3ccc(F)cc3F)c2n1 [Example 43, N-tery-Butyl-1-(2,4-difluorophenyl)-7-(dimethylamino)-4-oxo-1,4-dihydro-1,8-naphthyridine-3-carboxamide]	141 nM
CC[C@H](NC(=O)c1cn(-c2ccc(F)cc2F)c2nc(N(C)C)ccc2c1=O)C(F)(F)F [Example 45, 1-(2,4-Difluorophenyl)-7-(dimethylamino)-4-oxo-N-[(2S)-1,1,1-trifluorobutan-2-yl]-1,4-dihydro-1,8-naphthyridine-3-carboxamide]	28 nM
CN(C)c1ccc2c(=O)c(C(=O)NC34CCC(F)(CC3)CC4)cn(-c3ccc(F)cc3F)c2n1 [Example 47, 1-(2,4-Difluorophenyl)-7-(dimethylamino)-N-(4-fluorobicyclo[2.2.2]oct-1-yl)-4-oxo-1,4-dihydro-1,8-naphthyridine-3-carboxamide]	43 nM
CN(C)c1ccc2c(=O)c(C(=O)NCc3c(Cl)cccc3Cl)cn(-c3ccc(F)cc3F)c2n1 [Example 49, N-(2,6-Dichlorobenzyl)-1-(2,4-difluorophenyl)-7-(dimethylamino)-4-oxo-1,4-dihydro-1,8-naphthyridine-3-carboxamide]	89 nM
CN(C)c1ccc2c(=O)c(C(=O)NCc3ccc(F)cc3F)cn(-c3ccc(F)cc3F)c2n1 [Example 50, N-(2,4-Dmuorobenzyl)-1-(2,4-difluorophenyl)-7-(dimethylamino)-4-oxo-1,4-dihydro-1,8-naphthyridine-3-carboxamide]	158 nM
Cc1cccc(C)c1CNC(=O)c1cn(-c2ccc(F)cc2F)c2nc(N(C)C)ccc2c1=O [Example 51, 1-(2,4-Difluorophenyl)-7-(dimethylamino)-N-(2,6-dimethylbenzyl)-4-oxo-1,4-dihydro-1,8-naphthyridine-3-carboxamide]	100 nM
CN(C)c1ccc2c(=O)c(C(=O)Nc3c(F)cccc3F)cn(-c3ccc(F)cc3F)c2n1 [Example 52, 1-(2,4-Difluorophenyl)-N-(2,6-difluorophenyl)-7-(dimethylamino)-4-oxo-1,4-dihydro-1,8-naphthyridine-3-carboxamide]	104 nM
CN(C)c1ccc2c(=O)c(C(=O)NC(C)(C)c3c(F)cccc3F)cn(-c3ccc(F)cc3F)c2n1 [Example 53, 1-(2,4-Difluorophenyl)-N-[2-(2,6-difluorophenyl)propan-2-yl]-7-(dimethylamino)-4-oxo-1,4-dihydro-1,8-naphthyridine-3-carboxamide]	58 nM
Cc1cccc(C)c1NC(=O)c1cn(-c2ccc(F)cc2F)c2nc(N(C)C)ccc2c1=O [Example 54, 1-(2,4-Difluorophenyl)-7-(dimethylamino)-N-(2,6-dimethylphenyl)-4-oxo-1,4-dihydro-1,8-naphthyridine-3-carboxamide]	85 nM
CN(C)c1ccc2c(=O)c(C(=O)Nc3c(Cl)cccc3Cl)cn(-c3ccc(F)cc3F)c2n1 [Example 55, N-(2,6-Dichlorophenyl)-1-(2,4-difluorophenyl)-7-(dimethylamino)-4-oxo-1,4-dihydro-1,8-naphthyridine-3-carboxamide]	36 nM
O=C(NC12CC3CC(CC(C3)C1)C2)c1cn(-c2ccc(F)cc2F)c2nc(N3CC[C@H](F)C3)ccc2c1=O [Example 61, 1-(2,4-Difluorophenyl)-7-[(3S)-3-fluoropyrrolidin-1-yl]-4-oxo-N-(tricyclo[3.3.1.1^3,7]dec-1-yl)-1,4-dihydro-1,8-naphthyridine-3-carboxamide]	16 nM

Same assay, conditions: Receptor activity EC50, allosteric potency at EC20 acetylcholine; M2-GIRK1/4 reporter cells; in some cases mean of two or more determinations

Structure (SMILES)	EC50
CC(C)C(C)NC(=O)c1cn(-c2c(F)cc(F)cc2F)c2nc(N3C[C@@H](O)CC3=O)ccc2c1=O (stereo in doubt) [Example 482, 7-[(4S)-4-Hydroxy-2-oxopyrrolidin-1-yl]-N-[(2R)-3-methylbutan-2-yl]-4-oxo-1-(2,4,6-trifluorophenyl)-1,4-dihydro-1,8-naphthyridine-3-carboxamide]	13 nM

Same assay, conditions: read-out: Efficiency, boosting of the acetylcholine effect at EC20 acetylcholine concentration; M2-GIRK1/4 reporter cells

Structure (SMILES)	Emax
CC(C)C(C)NC(=O)c1cn(-c2c(F)cc(F)cc2F)c2nc(N3C[C@@H](O)CC3=O)ccc2c1=O (stereo in doubt) [Example 482, 7-[(4S)-4-Hydroxy-2-oxopyrrolidin-1-yl]-N-[(2R)-3-methylbutan-2-yl]-4-oxo-1-(2,4,6-trifluorophenyl)-1,4-dihydro-1,8-naphthyridine-3-carboxamide]	98.5%

— patent US20190367516A1 (Bayer Pharma Aktiengesellschaft, priority 2015, published 2019)
